# Measured values reported in ChEMBL document CHEMBL1201862, “PubChem BioAssay data set” (2004).
# Active and inactive are the calls of the source. For most assays here, no stated cut-off is given here; in the data, actives have a measured EC50 and inactives only a lower limit.
# Experiments:
# Streptococcus = experiment: GAS UMAA2166 growth inhibition – luminescence, BacTiterGlo, counter-screen for streptokinase expression inhibitor project, dose response (AID 1915); assay type: functional, organism-based;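 further: potency for reduction of bacterial viability or growth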
# [1] = tested on: Streptococcus sp. 'group A'; experiment: Streptococcus pyogenes SK(-)GAS viability under kanamycin – luminescence, BacTiterGlo, confirmation, counter-screen for streptokinase expression inhibitor project, dose response (AID 1900); assay type: functional, organism-based
# Streptokinase A = molecular target: T1, Streptokinase A (Streptococcus pyogenes serotype M1, UniProt P10520); experiment: viability-normalized secreted streptokinase activity reduction – plasminogen activation absorbance, OD405, dose response (AID 1914); assay type: functional, Streptococcus pyogenes M1 GAS;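 further: secreted streptokinase activity via plasminogen activation per viability signal from cell pellet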
# T1 sequence (P10520 whole entry): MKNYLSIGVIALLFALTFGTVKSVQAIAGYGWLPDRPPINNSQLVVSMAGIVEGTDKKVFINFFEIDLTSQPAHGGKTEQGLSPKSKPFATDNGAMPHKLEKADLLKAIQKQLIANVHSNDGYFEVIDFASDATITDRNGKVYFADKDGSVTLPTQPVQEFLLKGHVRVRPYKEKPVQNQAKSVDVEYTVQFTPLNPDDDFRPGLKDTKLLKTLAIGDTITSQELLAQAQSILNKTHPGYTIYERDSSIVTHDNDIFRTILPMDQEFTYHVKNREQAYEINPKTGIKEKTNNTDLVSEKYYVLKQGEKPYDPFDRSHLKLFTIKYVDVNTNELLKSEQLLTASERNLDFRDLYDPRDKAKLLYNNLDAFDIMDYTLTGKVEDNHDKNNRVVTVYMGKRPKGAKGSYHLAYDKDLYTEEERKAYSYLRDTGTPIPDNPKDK
# [2] = molecular target: T2, Corticotropin-releasing factor receptor 2/Corticotropin-releasing factor-binding protein (Homo sapiens, UniProt P24387+Q13324); experiment: activators of CRF receptor 2 with binding protein – uHTS hits, confirmation (AID 602473); assay type: functional; conditions: read-out: EC50_Mean
# T2 sequence (Q13324 whole entry): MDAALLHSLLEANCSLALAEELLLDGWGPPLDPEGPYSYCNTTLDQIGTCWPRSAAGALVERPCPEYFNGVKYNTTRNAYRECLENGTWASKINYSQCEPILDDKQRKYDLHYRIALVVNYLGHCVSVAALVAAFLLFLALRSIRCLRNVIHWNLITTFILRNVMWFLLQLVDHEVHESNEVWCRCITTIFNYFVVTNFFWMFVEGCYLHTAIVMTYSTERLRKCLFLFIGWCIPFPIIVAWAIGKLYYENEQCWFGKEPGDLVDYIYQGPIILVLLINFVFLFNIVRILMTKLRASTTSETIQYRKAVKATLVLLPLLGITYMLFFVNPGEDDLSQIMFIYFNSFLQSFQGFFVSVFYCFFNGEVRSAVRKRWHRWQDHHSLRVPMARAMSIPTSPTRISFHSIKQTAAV
# T2 sequence (P24387 whole entry): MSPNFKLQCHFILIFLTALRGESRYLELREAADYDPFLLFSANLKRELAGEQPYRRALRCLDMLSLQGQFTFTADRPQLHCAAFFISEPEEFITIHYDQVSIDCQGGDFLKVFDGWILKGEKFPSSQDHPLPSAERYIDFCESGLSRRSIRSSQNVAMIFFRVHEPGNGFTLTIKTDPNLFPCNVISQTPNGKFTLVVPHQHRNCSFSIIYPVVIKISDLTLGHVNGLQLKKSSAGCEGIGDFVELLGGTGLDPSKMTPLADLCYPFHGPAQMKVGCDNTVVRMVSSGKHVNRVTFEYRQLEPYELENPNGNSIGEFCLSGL
# [3] = molecular target: T2, Corticotropin-releasing factor receptor 2/Corticotropin-releasing factor-binding protein; experiment: Dose Response confirmation of uHTS hits for small molecule antagonists of the CRF-binding protein and CRF-R2 receptor complex.; assay type: functional; conditions: read-out: IC50_Mean
# Cytochrome P450 2D6 = Cytochrome P450 2D6 (Homo sapiens, UniProt P10635);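 further: CYP2D6 member of a cytochrome P450 panel assay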
# Sequence of Cytochrome P450 2D6 (P10635 whole entry): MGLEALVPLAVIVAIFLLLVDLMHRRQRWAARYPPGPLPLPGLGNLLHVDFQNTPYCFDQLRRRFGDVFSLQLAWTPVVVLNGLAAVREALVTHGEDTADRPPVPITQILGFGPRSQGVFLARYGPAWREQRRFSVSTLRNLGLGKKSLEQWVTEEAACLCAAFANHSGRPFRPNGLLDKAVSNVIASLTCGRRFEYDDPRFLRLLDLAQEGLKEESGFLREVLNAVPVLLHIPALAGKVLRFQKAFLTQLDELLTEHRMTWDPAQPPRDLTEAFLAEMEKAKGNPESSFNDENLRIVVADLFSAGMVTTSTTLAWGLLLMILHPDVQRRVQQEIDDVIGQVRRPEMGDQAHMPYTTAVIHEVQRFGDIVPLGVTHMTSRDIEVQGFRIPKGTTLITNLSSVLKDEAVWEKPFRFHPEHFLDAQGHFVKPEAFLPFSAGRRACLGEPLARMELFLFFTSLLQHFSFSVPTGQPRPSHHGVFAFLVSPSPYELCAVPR
# [4] = Trypanosoma cruzi growth suppression in host cells – NIH3T3 host cells, beta-gal luminescence, confirmation (AID 2044); assay type: functional, cell-based;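 further: intracellular parasites grown in NIH/3T3 mouse fibroblasts as host cells; luminescent beta-galactosidase reporter signal from transgenic T. cruzi replicating inside host cells; inhibitors lower the luminescence signal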
# [5] = NIH3T3 cell viability loss – ATP luminescence, mouse fibroblasts, counter-screen, dose response (AID 2010); assay type: functional, cell-based;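 further: cells exposed to compound for about 90 hours before reading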
smiles,measurement,setting,value
Fc1ccc(-c2cc(C(F)(F)F)nc(N3CCCCC3)n2)cc1,EC50,Streptococcus,13.1 µM (active)
same,EC50,[1],10.3 µM (active)
same,EC50,Streptokinase A,6.14 µM (active)
Cc1cc(NS(=O)(=O)c2c(C(=O)N3CCOCC3)c(C)n(C)c2C)ccc1Br,EC50,[2],> 53 µM (inactive)
same,IC50,[3],> 47.1 µM (inactive)
O=C(c1cnccn1)N1CCC2(CCCN(c3ncccn3)C2)CC1,AC50,Cytochrome P450 2D6,15.8 µM (inconclusive)
C/C=C/c1ccc(OCC(O)CN(C)Cc2ccc(SC)cc2)c(OC)c1 (stereo not drawn),EC50,[4],0.388 µM (active)
same,EC50,[5],> 60 µM (not active)
Cc1ccc(N/N=C/C=C/c2ccco2)cc1,EC50,[4],3.31 µM (active)
same,EC50,[5],> 30 µM (not active)
CCOP(=O)(OCC)c1cc(CC)ccc1O,EC50,[2],> 53 µM (inactive)
same,IC50,[3],> 47.1 µM (inactive)
O=C(Nc1cccc2ncccc12)c1ccc2c(c1)OCCO2,EC50,[2],> 53 µM (inactive)
COc1cccc(-c2nc(NCc3ccccc3)c3ccccc3n2)c1,AC50,Cytochrome P450 2D6,20 µM (inconclusive)
Cc1ccc(-c2nn(C(C)(C)C)c3ncnc(NS(=O)(=O)c4ccc([N+](=O)[O-])cc4)c23)cc1,EC50,[4],2.33 µM (active)
same,EC50,[5],> 60 µM (not active)
C[C@H](C(=O)O)c1cccc(Oc2ccccc2)c1,AC50,Cytochrome P450 2D6,12.6 µM (inconclusive)
CCOC(=O)c1ccc(NC(S)=NN2CCN(C)CC2)cc1,EC50,[4],1.08 µM (active)
same,EC50,[5],> 60 µM (inconclusive)
Cc1cccc(N2CCN(C(=O)c3ccc(Cl)c(S(=O)(=O)N4CCc5ccccc5C4)c3)CC2)c1C,EC50,[4],1.13 µM (active)
same,EC50,[5],> 60 µM (inconclusive)
CN(CC[C@@H](Oc1ccc(-c2ccccc2)cc1)c1ccc(F)cc1)CC(=O)O,AC50,Cytochrome P450 2D6,31.6 µM (inconclusive)
O=C(CNc1cccc2ccccc12)N/N=C/c1ccc[nH]1,EC50,Streptococcus,> 150 µM (not active)
same,EC50,[1],> 150 µM (not active)
same,EC50,Streptokinase A,> 150 µM (not active)
O=C(CSc1nnc(NC(=O)c2ccccc2)s1)NCC1CCCO1 (stereo not drawn),EC50,Streptococcus,> 150 µM (not active)
same,EC50,[1],> 150 µM (not active)
same,EC50,Streptokinase A,> 150 µM (not active)
O=C(Nc1nc(-c2ccccc2)cs1)c1cccc([N+](=O)[O-])c1,EC50,[4],2.4 µM (active)
same,EC50,[5],> 60 µM (not active)
O=C(CNS(=O)(=O)c1cccs1)NCCc1ccc(Cl)cc1,EC50,[2],> 53 µM (inactive)
same,IC50,[3],> 47.1 µM (inactive)
COc1ccc(-c2cc(C)no2)cc1S(=O)(=O)N1CCN(C(=O)c2ccco2)CC1,EC50,[2],> 53 µM (inactive)
same,IC50,[3],> 47.1 µM (inactive)
COc1ccc(/C=C(/C(=O)c2ccc(Cl)cc2Cl)n2cncn2)cc1,EC50,[4],0.423 µM (active)
same,EC50,[5],31.4 µM (active)
CCCC[C@@H]1C[C@H]1C(NC(=O)c1ccco1)c1ccc(Cl)cc1 (stereo partly drawn),AC50,Cytochrome P450 2D6,39.8 µM (inconclusive)
Cc1cc(S(=O)(=O)NCc2ccccc2)ccc1OCC(=O)NCC1CCCO1 (stereo not drawn),EC50,[2],> 53 µM (inactive)
Cc1ccccc1S(=O)(=O)Cc1ccc(C(=O)NCCN2CCN(Cc3ccccc3)CC2)o1,EC50,[4],1.4 µM (active)
same,EC50,[5],> 60 µM (not active)
Cc1ccc(NC(=O)c2c(C(F)(F)F)nn(C)c2SCc2ccc(Cl)cc2)cc1C,EC50,[4],2.84 µM (active)
same,EC50,[5],> 60 µM (not active)
c1ccc(C(c2nnnn2C2CCCC2)N2CCN(c3nc4ccccc4s3)CC2)cc1 (stereo not drawn),EC50,[4],1.95 µM (active)
same,EC50,[5],> 60 µM (not active)
Cc1noc(/C=C/c2ccc(-c3ccccc3Cl)o2)c1[N+](=O)[O-],EC50,[2],5.11 µM (active)
CCN(CC)CCn1c(SCC(=O)NCCC2=CCCCC2)nc2c(sc3ccccc32)c1=O,EC50,[4],2 µM (active)
same,EC50,[5],15.7 µM (active)
COc1ccc(CN2CCN(Cc3cccc4nonc34)CC2CCO)c(C)c1C (stereo not drawn),EC50,[4],0.403 µM (active)
same,EC50,[5],> 60 µM (not active)
CC(C)Cn1cnc2c(SCc3ccccc3)nc(N)nc21,EC50,[2],> 53 µM (inactive)
same,IC50,[3],> 47.1 µM (inactive)
CC1CCCN(CCOCCSc2ccccc2)C1 (stereo not drawn),EC50,[4],0.297 µM (active)
same,EC50,[5],> 60 µM (not active)
Cc1c(C(=O)Nc2ccc(S(=O)(=O)N(C)C3CCN(C)CC3)cc2)oc2c(Cl)cccc12,EC50,[4],0.85 µM (active)
same,EC50,[5],> 30 µM (not active)
COc1ccc(O)c(C(=O)c2cc(C#N)c(=O)n(-c3c(C)n(C)n(-c4ccccc4)c3=O)c2)c1,EC50,[2],6.39 µM (active)
CC(C)Oc1cccc(C(=O)C2CCCN(Cc3cnc(N4CCOCC4)s3)C2)c1 (stereo not drawn),EC50,[4],0.146 µM (active)
same,EC50,[5],> 30 µM (not active)
Cc1cc(S(=O)(=O)NCCC2=CCCCC2)ccc1Br,EC50,Streptococcus,> 150 µM (not active)
same,EC50,[1],9.73 µM (active)
same,EC50,Streptokinase A,10.4 µM (active)
CCOc1ccc(N=C(N)Nc2nc(C)cc(C)n2)cc1,EC50,[2],6.95 µM (active)
COc1cccc(N/C(SCc2cccc([N+](=O)[O-])c2)=C(/C#N)C(N)=O)c1,EC50,[4],4.17 µM (active)
same,EC50,[5],> 60 µM (not active)
CCOC(=O)Cn1c(CN(Cc2ccccc2)Cc2ccccc2)nc2c1c(=O)[nH]c(=O)n2C,AC50,Cytochrome P450 2D6,31.6 µM (inconclusive)
CC1=C(C)CC2(C(=O)NC(=S)NC2=O)C(C)C1 (stereo not drawn),EC50,[2],> 53 µM (inactive)
O=C(NCC1COc2ccccc2O1)c1ccc(NC(=O)C(c2ccccc2)c2ccccc2)cc1 (stereo not drawn),EC50,[4],1.88 µM (active)
same,EC50,[5],> 60 µM (inconclusive)
COc1ccc(NC(=O)N2CCCC3(CCN(S(=O)(=O)c4ccccc4)CC3)C2)cc1,AC50,Cytochrome P450 2D6,15.8 µM (inconclusive)
CC(C)(C)CC(=O)N1CCC(c2nc(O)c3nnn(Cc4c(F)cccc4Cl)c3n2)CC1,EC50,Streptococcus,16.7 µM (active)
same,EC50,Streptokinase A,> 150 µM (not active)
CNc1c([N+](=O)[O-])nn(-c2ccc3c(c2)OCCO3)[n+]1[O-],EC50,[4],0.68 µM (active)
same,EC50,[5],20.1 µM (active)
CSc1ccccc1C(=O)C1CCCN(Cc2cnn(-c3ccccc3)c2)C1 (stereo not drawn),EC50,[4],0.245 µM (active)
same,EC50,[5],> 60 µM (not active)
CN1CCc2cc3c(cc2[C@@H]1[C@@H]1C(=O)Oc2c1ccc1c2OCO1)OCO3,AC50,Cytochrome P450 2D6,39.8 µM (inconclusive)
CN(C)CCCN(C(=O)c1cc2ccccc2oc1=O)c1nc2c(F)cccc2s1,EC50,[4],0.118 µM (active)
same,EC50,[5],> 60 µM (not active)
Cc1noc(C)c1-c1ccc2ncnc(NCc3cccnc3)c2c1,AC50,Cytochrome P450 2D6,12.6 µM (inconclusive)
COc1ccc(C2CC3=Nc4ncnn4C(c4ccccc4C)C3=C(O)C2)c(OC)c1 (stereo not drawn),EC50,[4],1.56 µM (active)
same,EC50,[5],> 60 µM (not active)
Cc1ccc(N2C(=O)NC(=O)/C(=C\c3ccoc3)C2=O)cc1,EC50,[2],> 53 µM (inactive)
CCOc1ccc(NS(=O)(=O)c2ccc(NC(=O)[C@@H]3CCCC[C@@H]3C(=O)O)cc2)cc1,EC50,[2],> 53 µM (inactive)
CS(=O)(=O)N1CCC2(CC1)CN(Cc1ccccc1)C2,AC50,Cytochrome P450 2D6,15.8 µM (inconclusive)
Cc1cc(NC(=O)CCCn2cnc([N+](=O)[O-])n2)no1,EC50,[4],0.797 µM (active)
same,EC50,[5],> 60 µM (inconclusive)
Cn1c2ccccc2c(=O)c2cc(C#Cc3ccc(N)cc3)ccc21,EC50,Streptococcus,3.34 µM (active)
same,EC50,[1],0.713 µM (active)
COc1ccc(/C=c2\s/c(=C/C(=O)c3ccc(C)cc3)[nH]c2=O)cc1OC,EC50,Streptococcus,> 150 µM (not active)
same,EC50,[1],13.2 µM (active)
same,EC50,[2],13.4 µM (active)
same,EC50,Streptokinase A,> 150 µM (not active)
Cc1cccc(Nc2nc(N)nc(CN3CCN(c4ccc(F)cc4)CC3)n2)c1,EC50,Streptococcus,95.3 µM (active)
same,EC50,[1],12.1 µM (active)
same,EC50,Streptokinase A,> 150 µM (not active)
N#Cc1ccc(CSc2nnc(-c3ccncc3)n2CCc2ccccc2)cc1,EC50,[4],0.772 µM (active)
same,EC50,[5],> 60 µM (not active)
Cc1ccccc1NC(=O)C(C)c1cccc(C(=O)c2ccccc2)c1 (stereo not drawn),AC50,Cytochrome P450 2D6,25.1 µM (inconclusive)
